Assay results: patent US20250034115A1, “CRYSTALLINE FORMS OF C-C CHEMOKINE RECEPTOR TYPE 4 ANTAGONIST AND USES THEREOF” (RAPT THERAPEUTICS, INC., priority 2023, published 2025)

Assay: Salt screen, comments on water content / hydration versus humidity
Type: physicochemical
Method: Experiments to form salts were performed and evaluated using 45 different acids and bases and 15 different solvents, either alone or in some combination, which are listed in Table 1 below, and notable results of those experiments are presented in Table 2 below. L-arginine Saccharin Methyl isobutyl ketone

| hygroscopicity (Additional Comments) (1.0 equiv, water, highly variable water content based on humidity) | Compound | level of hydration over humidity range (Additional Comments) (0.5 equiv, polymorph formed at higher (>70° C.) temperature compared with polymorph formed at ambient temp) |
| --- | --- | --- |
| Highly hydroscopic (highly variable | Cc1nc(N2CC([C@H]3CCCN([C@H]4C[C@](C)(C(=O)[O-])C4)C3)C2)nc(N[C@H](C)c2ccc(Cl)cc2Cl)c1Cl.[Na+] [NaOH, (1R,3r)-3-((R)-3-(1-(5-chloro-4-(((R)-1-(2,4-dichlorophenyl)ethyl)amino)-6-methylpyrimidin-2-yl)azetidin-3-yl)piperidin-1-yl)-1-methylcyclobutane-1-carboxylic acid, sodium salt] |  |
|  | O=C(O)[C@H](O)[C@@H](O)C(=O)O [L-Tartaric Acid] | temperature had a more stable level |
